The values below come from ChEMBL document CHEMBL1201862, “PubChem BioAssay data set” (2004).

Calls of active or inactive are those of the source.

The target in experiment [1] is T1, Sentrin-specific protease 8 (Homo sapiens, UniProt Q96LD8).
T1 sequence (Q96LD8 whole entry): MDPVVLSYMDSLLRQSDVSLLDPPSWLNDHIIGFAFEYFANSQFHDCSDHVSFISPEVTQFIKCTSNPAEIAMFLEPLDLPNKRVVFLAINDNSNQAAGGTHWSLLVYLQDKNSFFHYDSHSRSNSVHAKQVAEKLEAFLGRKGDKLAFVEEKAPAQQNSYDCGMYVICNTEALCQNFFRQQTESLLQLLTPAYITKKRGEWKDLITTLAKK
In kind it is functional.

In experiment [2] the target is Serine/threonine-protein phosphatase PP1-alpha catalytic subunit (Homo sapiens, UniProt P62136). Put plainly: inhibition of protein phosphatase 1 activity – biochemical, fluorescence, dose response (AID 2394).
Experiment [3] has as its target T2, Sentrin-specific protease 7 (Homo sapiens, UniProt Q9BQF6).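 Note: Luminescence-based dose-response confirmation of ultra-high-throughput screening hits, measuring inhibition of SENP7.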
T2 sequence (Q9BQF6 whole entry): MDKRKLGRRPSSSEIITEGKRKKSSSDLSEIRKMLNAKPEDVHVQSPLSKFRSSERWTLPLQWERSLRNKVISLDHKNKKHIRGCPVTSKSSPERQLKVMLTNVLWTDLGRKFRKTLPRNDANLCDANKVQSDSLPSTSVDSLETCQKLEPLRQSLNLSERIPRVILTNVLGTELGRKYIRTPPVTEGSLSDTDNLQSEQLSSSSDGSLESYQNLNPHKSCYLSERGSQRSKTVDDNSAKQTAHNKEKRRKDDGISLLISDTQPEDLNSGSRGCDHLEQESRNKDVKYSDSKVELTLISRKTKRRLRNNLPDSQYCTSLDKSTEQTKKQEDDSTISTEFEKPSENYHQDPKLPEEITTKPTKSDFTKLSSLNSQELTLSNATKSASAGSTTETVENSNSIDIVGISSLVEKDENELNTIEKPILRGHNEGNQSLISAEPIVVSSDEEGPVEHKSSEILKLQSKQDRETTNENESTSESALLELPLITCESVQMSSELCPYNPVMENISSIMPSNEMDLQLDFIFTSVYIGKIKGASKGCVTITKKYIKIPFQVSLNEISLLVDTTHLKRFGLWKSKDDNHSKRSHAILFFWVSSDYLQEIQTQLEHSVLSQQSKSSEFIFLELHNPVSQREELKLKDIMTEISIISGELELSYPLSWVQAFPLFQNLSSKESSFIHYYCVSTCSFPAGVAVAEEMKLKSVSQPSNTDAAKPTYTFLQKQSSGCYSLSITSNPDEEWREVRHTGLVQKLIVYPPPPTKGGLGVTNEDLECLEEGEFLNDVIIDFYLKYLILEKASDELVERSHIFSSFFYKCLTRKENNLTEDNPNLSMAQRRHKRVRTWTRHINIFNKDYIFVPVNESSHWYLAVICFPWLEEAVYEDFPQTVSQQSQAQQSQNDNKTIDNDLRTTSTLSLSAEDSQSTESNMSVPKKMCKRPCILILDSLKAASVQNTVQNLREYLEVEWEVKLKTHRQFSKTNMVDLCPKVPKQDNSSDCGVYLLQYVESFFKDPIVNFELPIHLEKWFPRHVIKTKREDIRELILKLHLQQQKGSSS
In kind it is functional.

The target of experiment [4] is T1, Sentrin-specific protease 8. In kind it is functional. The source holds these as a separate data set.
For experiment [5], the target named is Genome polyprotein (dengue virus type 2, UniProt P29990). Kind of experiment: flavivirus cap methylation enzyme inhibition – biochemical, confirmation dose response, primary screen (AID 588689). In kind it is functional.
Sequence of Genome polyprotein (P29990 2492-3391 limits assumed): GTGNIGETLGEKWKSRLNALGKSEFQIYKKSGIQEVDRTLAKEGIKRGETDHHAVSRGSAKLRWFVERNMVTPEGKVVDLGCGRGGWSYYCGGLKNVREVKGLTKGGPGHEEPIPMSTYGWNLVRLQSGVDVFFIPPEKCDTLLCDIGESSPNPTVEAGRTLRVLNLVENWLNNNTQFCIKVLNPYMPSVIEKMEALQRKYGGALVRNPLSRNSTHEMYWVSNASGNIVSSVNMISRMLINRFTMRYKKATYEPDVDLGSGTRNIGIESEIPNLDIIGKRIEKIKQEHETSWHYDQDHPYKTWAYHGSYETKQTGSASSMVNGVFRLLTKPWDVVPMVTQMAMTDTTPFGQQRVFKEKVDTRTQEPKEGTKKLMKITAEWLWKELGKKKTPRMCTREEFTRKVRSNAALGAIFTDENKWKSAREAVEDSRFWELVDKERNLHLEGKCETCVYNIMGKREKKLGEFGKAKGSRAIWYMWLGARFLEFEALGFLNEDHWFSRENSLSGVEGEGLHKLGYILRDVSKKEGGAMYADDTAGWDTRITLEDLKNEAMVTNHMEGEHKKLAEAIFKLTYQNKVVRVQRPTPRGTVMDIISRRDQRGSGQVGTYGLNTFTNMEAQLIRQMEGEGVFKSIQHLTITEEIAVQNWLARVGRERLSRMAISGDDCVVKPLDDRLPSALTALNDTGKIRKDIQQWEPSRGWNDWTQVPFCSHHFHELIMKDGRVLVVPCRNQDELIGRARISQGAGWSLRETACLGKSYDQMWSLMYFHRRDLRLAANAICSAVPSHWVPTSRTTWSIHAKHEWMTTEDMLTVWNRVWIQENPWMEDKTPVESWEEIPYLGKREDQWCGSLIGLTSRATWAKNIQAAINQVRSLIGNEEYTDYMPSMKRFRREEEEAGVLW
Experiment [6] concerns the target Dual specificity protein phosphatase 3 (Homo sapiens, UniProt P51452). Kind of experiment: VHR1 phosphatase inhibitors, biochemical (AID 1878).
In experiment [7] the target is Nonstructural protein 1 (Influenza A virus, UniProt Q194T2). In kind it is functional, Influenza A virus (A/California/07/2009(H1N1)).
Experiment [8] is described as follows: Fluorescence polarization-based biochemical high throughput dose response assay for activators of the Protein Kinase A-R2B (PKA-R2B) complex. [Related pubchem assays (depositor defined):AID504700, AID504704, AID504796, AID504797].
The target in experiment [9] is Cyclin-dependent kinase 9 (Homo sapiens, UniProt P50750). In kind it is functional.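 Note: value from the CDK9 entry of a kinome-spanning kinase panel.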
Sequence of Cyclin-dependent kinase 9 (P50750 whole entry): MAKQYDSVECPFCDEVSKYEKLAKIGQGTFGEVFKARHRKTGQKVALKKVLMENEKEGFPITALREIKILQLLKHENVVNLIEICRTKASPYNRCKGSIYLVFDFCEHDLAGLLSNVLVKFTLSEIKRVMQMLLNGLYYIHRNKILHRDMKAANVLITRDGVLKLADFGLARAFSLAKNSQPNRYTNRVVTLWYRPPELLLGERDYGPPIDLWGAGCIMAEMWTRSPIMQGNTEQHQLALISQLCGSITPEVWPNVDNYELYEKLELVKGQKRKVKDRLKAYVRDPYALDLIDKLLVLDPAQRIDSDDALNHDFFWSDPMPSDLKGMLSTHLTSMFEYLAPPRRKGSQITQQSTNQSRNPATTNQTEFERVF
Experiment [10] addresses Cyclin-dependent kinase 8 (Homo sapiens, UniProt P49336). Put plainly: Navigating the Kinome. Panel member name: CDK8. In kind it is functional.
The target of experiment [11] is Inhibitor of nuclear factor kappa-B kinase subunit epsilon (Homo sapiens, UniProt Q14164). Put plainly: Navigating the Kinome. Panel member name: IKBKE. In kind it is functional.
Sequence of Inhibitor of nuclear factor kappa-B kinase subunit epsilon (Q14164 whole entry): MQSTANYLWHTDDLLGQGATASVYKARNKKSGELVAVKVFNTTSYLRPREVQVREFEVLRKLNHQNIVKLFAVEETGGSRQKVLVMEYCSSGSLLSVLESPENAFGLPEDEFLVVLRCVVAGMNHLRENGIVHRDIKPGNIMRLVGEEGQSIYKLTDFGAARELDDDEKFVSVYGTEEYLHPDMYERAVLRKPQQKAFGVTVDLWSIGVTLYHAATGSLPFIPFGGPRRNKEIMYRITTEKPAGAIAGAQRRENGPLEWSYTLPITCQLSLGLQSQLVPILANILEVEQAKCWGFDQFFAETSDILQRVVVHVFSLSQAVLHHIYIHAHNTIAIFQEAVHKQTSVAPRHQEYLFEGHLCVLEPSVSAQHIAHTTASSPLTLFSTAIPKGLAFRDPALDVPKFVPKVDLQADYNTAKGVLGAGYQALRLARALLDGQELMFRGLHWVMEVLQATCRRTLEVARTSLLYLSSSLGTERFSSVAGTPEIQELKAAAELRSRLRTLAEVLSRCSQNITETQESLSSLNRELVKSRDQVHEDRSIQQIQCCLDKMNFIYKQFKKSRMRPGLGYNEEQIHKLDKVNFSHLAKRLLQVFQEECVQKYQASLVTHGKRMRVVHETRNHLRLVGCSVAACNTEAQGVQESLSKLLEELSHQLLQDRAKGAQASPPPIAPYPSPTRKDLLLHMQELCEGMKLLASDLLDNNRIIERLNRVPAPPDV
Experiment [12] addresses Focal adhesion kinase 1 (Homo sapiens, UniProt Q05397). In kind it is functional.
Experiment [13] deals with Mitogen-activated protein kinase 9 (Homo sapiens, UniProt P45984). In kind it is functional.
Sequence of Mitogen-activated protein kinase 9 (P45984 whole entry): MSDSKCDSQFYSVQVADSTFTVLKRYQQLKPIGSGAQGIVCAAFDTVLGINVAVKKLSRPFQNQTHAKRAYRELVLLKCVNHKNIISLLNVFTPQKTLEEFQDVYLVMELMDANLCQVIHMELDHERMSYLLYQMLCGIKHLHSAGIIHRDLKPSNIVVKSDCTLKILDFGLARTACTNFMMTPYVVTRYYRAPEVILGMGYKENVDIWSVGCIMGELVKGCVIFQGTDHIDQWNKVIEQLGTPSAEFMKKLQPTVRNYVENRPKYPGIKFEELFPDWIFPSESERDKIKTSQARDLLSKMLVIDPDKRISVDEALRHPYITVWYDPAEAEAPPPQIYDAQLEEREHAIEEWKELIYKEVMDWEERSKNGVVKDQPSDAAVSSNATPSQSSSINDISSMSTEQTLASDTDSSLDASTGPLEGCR
Experiment [14] has as its target Macrophage-stimulating protein receptor (Homo sapiens, UniProt Q04912). Kind of experiment: Navigating the Kinome. Panel member name: MST1R. In kind it is functional.
Experiment [15] addresses Cyclin-dependent kinase 5 (Homo sapiens, UniProt Q00535). In kind it is functional.
In experiment [16] the target is Macrophage colony-stimulating factor 1 receptor (Homo sapiens, UniProt P07333). In kind it is functional.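 Note: value comes from the Navigating the Kinome screening panel, CSF1R member.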
Sequence of Macrophage colony-stimulating factor 1 receptor (P07333 whole entry): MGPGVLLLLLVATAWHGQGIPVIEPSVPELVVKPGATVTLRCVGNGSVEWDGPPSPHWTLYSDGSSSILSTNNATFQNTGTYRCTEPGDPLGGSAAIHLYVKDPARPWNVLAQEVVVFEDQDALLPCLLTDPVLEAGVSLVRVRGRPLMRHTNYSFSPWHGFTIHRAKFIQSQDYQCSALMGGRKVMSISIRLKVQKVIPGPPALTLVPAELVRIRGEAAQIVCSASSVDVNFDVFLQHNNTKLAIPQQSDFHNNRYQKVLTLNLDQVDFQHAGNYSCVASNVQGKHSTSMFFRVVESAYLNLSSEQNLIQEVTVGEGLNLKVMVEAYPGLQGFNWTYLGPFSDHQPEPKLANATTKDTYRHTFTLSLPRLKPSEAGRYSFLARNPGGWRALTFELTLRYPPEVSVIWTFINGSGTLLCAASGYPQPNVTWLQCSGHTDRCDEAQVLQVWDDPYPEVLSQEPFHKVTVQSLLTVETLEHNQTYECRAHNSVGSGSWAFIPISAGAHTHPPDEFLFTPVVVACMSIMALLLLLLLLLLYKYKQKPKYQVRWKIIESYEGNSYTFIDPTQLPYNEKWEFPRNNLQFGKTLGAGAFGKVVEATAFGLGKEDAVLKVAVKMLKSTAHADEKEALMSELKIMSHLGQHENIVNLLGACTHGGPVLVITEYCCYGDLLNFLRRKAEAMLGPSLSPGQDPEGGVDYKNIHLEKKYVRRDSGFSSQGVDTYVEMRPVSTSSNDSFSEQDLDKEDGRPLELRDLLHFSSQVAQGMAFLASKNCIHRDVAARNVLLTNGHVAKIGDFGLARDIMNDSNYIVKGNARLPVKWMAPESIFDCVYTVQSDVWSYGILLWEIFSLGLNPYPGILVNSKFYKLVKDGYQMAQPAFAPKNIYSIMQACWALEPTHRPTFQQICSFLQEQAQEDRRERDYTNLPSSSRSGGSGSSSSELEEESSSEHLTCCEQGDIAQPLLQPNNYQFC
For experiment [17], the target named is Vascular endothelial growth factor receptor 1 (Homo sapiens, UniProt P17948). In kind it is functional.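 Note: measured within a kinome-wide profiling panel, FLT1 as the panel member.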
Experiment [18] has as its target Leukocyte tyrosine kinase receptor (Homo sapiens, UniProt P29376). Kind of experiment: Navigating the Kinome. Panel member name: LTK. In kind it is functional.
The target in experiment [19] is Dual specificity protein kinase CLK2 (Homo sapiens, UniProt P49760). In kind it is functional.

Sequence of Focal adhesion kinase 1 (Q05397 whole entry): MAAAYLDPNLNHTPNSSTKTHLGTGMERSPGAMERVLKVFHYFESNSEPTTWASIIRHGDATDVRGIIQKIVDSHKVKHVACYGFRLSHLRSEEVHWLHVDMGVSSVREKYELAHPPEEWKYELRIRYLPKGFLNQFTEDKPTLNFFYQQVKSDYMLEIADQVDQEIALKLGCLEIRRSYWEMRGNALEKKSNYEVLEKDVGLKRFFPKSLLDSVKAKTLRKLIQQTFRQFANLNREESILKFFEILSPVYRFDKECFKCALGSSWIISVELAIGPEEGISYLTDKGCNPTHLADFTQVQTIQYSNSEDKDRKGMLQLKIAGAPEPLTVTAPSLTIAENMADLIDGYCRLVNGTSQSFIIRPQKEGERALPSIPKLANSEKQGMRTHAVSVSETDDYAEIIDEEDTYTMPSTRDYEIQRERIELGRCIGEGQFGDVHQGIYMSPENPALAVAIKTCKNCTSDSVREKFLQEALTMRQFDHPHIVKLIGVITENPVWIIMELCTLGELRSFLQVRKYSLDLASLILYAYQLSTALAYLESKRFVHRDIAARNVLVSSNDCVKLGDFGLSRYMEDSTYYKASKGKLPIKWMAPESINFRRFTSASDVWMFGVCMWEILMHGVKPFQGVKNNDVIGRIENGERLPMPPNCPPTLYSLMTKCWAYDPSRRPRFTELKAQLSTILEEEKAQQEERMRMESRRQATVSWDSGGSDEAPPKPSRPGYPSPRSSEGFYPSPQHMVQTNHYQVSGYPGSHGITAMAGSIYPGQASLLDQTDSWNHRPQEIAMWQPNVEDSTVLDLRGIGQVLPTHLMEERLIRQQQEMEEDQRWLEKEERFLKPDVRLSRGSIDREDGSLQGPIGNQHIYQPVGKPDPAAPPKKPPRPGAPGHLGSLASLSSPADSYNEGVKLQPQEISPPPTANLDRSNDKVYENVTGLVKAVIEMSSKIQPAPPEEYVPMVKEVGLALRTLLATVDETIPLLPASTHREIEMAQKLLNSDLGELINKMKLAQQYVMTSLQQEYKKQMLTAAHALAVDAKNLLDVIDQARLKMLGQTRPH
Sequence of Cyclin-dependent kinase 5 (Q00535 whole entry): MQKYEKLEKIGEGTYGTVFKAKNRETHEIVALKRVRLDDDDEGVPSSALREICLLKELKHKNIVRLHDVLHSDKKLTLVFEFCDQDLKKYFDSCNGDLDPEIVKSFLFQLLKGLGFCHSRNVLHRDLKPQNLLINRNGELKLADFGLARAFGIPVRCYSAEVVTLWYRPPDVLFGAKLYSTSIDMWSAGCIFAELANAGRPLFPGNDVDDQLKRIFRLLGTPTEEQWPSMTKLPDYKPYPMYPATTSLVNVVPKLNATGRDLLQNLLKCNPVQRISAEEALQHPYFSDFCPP
Sequence of Dual specificity protein phosphatase 3 (P51452 whole entry): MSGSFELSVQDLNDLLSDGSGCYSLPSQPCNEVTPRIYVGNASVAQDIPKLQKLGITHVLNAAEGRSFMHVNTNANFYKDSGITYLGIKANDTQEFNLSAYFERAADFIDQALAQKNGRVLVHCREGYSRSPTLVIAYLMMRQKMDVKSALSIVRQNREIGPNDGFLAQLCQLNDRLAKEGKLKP

Take `O=C(NNc1cc(N2CCCC2)nc(N2CCCC2)n1)c1ccc([N+](=O)[O-])cc1`: the IC50 (in general, the concentration that gives 50% inhibition) in experiment [1] was 2120 nM (active); in experiment [2] it was > 67000 nM (not active); in experiment [3], 2550 nM (active); in experiment [4], 155 nM (active).

As to `O=S(=O)(O)c1cccc2c(N=Nc3ccc(O)c4ncccc34)cccc12`, the IC50 was 34800 nM (active) in experiment [5], 1700 nM (active) in experiment [6] and 4680 nM (active) in [7]. In addition, the EC50 (in general, the concentration at which the effect is half-maximal) in experiment [8] was > 114000 nM (inactive).

For `O=C(Cc1cccs1)Nc1nc2ccccc2s1`, the Ki (in general, the equilibrium dissociation constant of an inhibitor or competing ligand from its target) in experiment [9] is 251 nM (active); in experiment [10] it was 398 nM (active); in [11], > 3160 nM (inactive); in experiment [12] it was > 6310 nM (inactive); in [13], 3160 nM (active); in experiment [14], 2000 nM (active). In addition, the inhibition constant (Ki) was 1580 nM (active) in [15]; > 2510 nM (inactive) in experiment [16]; 3160 nM (active) in [17]; 1000 nM (active) in experiment [18]; > 3980 nM (inactive) in [19].
